Values joined by “and” are separate entries in the source; they are usually repeats but may differ in a detail not shown here. Equal values may be shown once. Read-outs that look alike come from different tables or passages of the source.
Key:
hBChE = hBChE (Homo sapiens, UniProt P06276); test: ChE IC50 determination, method of Ellman, hBChE; type: biochemical
Method: The inhibitory potencies of the compounds against the ChEs were determined using the method of Ellman following the procedure described previously. Briefly, compound stock solutions in DMSO were incubated with Ellman’s reagent and ChEs (final concentrations: 370 μmol/L Ellman’s reagent, approximately 1 nmol/L or 50 pmol/L hBChE or hAChE, respectively) in 0.1 mol/L sodium phosphate pH 8.0 for 5 min at 20 °C. For time-dependency measurements, the pre-incubation time was varied (1, 5, 15, 30 or 60 min). The reactions were started by the addition of the substrate (final concentration, 500 μmol/L butyrylthiocholine iodide or acetylthiocholine iodide for hBChE and hAChE, respectively). The final content of DMSO was always 1%. The increase in absorbance at 412 nm was monitored for 2 min using a 96-well microplate reader (Synergy HT, BioTek Instruments, VT, USA). The initial velocities in the presence (vi) and absence (v0) of the test compounds were calculated. The inhibitory potencies were expressed as the residual activities, according to Eq. (1):(1) RA = vi / v0
For IC50 determinations, at least seven different concentrations for each compound were used. The IC50 values were obtained by plotting the residual ChE activities against the applied inhibitor concentrations, with the experimental data fitted to a four-parameter logistic function (GraphPad Prism 9.4). Tacrine and donepezil were used as positive controls.

AChE = molecular target: T1, AChE (Mus musculus, UniProt P21836); test: Cholinesterase inhibition upon repeated dosing, serum AChE; type: in vivo, C57BL/6JRccHsd mice
T1 construct: from tissue; host or cells: mouse serum (C57BL/6JRccHsd)
T1 sequence (P21836 32-614): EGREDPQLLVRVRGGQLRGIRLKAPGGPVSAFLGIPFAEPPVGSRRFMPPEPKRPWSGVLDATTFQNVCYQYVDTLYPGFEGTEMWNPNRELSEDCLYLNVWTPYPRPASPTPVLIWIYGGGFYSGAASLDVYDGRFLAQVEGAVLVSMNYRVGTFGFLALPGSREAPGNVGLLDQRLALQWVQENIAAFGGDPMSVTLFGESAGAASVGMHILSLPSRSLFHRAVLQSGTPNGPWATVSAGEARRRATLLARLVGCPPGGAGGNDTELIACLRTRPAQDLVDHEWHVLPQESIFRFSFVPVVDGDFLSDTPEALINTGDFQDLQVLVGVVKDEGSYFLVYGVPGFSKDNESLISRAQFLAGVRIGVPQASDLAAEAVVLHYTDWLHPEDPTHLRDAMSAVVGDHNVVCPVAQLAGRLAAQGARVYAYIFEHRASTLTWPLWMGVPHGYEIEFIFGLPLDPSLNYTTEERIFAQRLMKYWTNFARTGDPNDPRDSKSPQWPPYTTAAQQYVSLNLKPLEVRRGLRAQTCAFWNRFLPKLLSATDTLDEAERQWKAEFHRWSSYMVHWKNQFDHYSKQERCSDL
Excerpt: The 12 mice used in this pilot study were 9–14 months old male wild-type C57BL/6JRccHsd mice bred in the Laboratory of Animal Genomics at the Faculty of Veterinary Medicine, University of Ljubljana, or purchased from Envigo RMS Holding Corp. Mice were conventionally bred in open polycarbonate cages (Tecniplast, Buguggiate, Italy) and provided with wood chip bedding (Lignocel®, Rettenmaier and Sons, Germany). Mice were kept under standard conditions, including a 12:12 dark–light cycle (LED, CCT 3000 k, with no more than 25 lux above the cage), a temperature range of 21–24 °C, and humidity between 50%–60%. They were fed irradiated rodent diet (Teklad global 16% protein rodent diet®, BN 2916, Envigo, Udine, Italy) and had access to drinkable tap water ad libitum. Due to the nature of this pilot study, the mice were housed individually. The experimental design was evaluated by the National Ethics Committee for Animal Experiments and approved by the Veterinary Administration of the Republic of Slovenia (document no. U34401-10/2021/8, with amendments U34401-10/2021/13 and U34401-10/2021/1).
Before the start of study, blood was drawn from the submandibular vein (facial vein) of the animals under isoflurane inhalation anesthesia (Isoflurin®, VetPharma, Spain) using a 5 mm lancet (Goldenrod Animal Sterile, MEDIpoint, Inc., NY, USA), collected in a microtube (Eppendorf, Safe-Lock tube, 0.5 mL, Eppendorf AG, Germany) and allowed to clot. After approximately 1 h, the blood was centrifuged at 6000 × g for 15 min at 4 °C to obtain the sera, which were stored at –80 °C until analysis.
Seven animals received the 1 mg/kg dose of compound 8, and five animals received the 5 mg/kg dose of compound 8. Compound 8 was prepared as a stock solution in 100% MeCN (5 and 10 mg/mL) and kept refrigerated for the duration of the study. The dosages were prepared as follows: based on the animal’s body weight, a calculated volume of compound 8 stock solution was accurately pipetted onto a cubic piece (approx. 50 mg) of sterilized toast (Ölz multigrain toast, Rudolf Ölz Meisterbäcker GmbH & Co KG, Austria), and left to dry at room temperature for 5 min. Subsequently, 25 μL of 50% sucrose in distilled water were added at the same site to mask the bitter taste of compound 8. These dosage units were prepared twice a week during the study and stored in a closed glass petri dish at room temperature until use. […] Compound 8 was administered in this way for 27 days, eliminating the need for repeated handling and injection. The animals were observed daily for general activity level, hair coat quality or other abnormal behavior or clinical signs.
24 h after the last dose was administered, the mice were humanly euthanized under isoflurane inhalation anesthesia (Isoflurin®, VetPharma, Spain) and the blood was withdrawn from the left ventricle using a syringe, collected in a microtube (Eppendorf, Safe-Lock tube, 0.5 mL, Eppendorf AG, Germany) and allowed to clot. After approximately 1 h, the blood was centrifuged at 6000 × g for 15 min at 4 °C to obtain the sera, which were stored at –80 °C until analysis. […] Animal sera (5–10 μL) were diluted in 0.5 mmol/L DTNB in 0.1 mol/L sodium phosphate buffer pH 7.4 (total volume 1000 μL), substrate (5 μL of 100 mmol/L, final concentration 0.5 mmol/L) was added, and the increase in absorbance monitored for 3 min. BChE activity was determined using butyrylthiocholine iodide, while AChE activity was determined on isoOMPA-inhibited sera (buffer-diluted sera were preincubated for 25 min with 1 μL of 100 mmol/L isoOMPA–0.1 mmol/L final concentration) using acetylthiocholine iodide (final concentration 0.5 mmol/L). Measurements were performed in triplicate and pairwise compared before and after treatment for each subject (n = 5 per group).

Sequence of hBChE (P06276 29-602): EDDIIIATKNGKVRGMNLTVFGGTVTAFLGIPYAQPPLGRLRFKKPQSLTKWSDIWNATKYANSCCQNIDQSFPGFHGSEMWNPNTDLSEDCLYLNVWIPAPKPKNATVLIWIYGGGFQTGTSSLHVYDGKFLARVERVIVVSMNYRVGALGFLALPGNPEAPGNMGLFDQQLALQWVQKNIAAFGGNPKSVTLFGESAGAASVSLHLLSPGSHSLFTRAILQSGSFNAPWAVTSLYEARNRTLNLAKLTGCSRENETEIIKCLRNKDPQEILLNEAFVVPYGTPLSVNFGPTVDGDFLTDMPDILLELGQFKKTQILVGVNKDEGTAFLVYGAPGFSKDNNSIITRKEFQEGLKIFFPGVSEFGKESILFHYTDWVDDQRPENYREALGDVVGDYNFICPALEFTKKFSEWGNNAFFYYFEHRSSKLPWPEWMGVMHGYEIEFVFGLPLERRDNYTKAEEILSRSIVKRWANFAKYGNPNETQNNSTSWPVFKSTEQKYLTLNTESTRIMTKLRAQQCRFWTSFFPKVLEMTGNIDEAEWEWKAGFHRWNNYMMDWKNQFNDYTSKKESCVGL

Structure (SMILES): CCN(CC)C(=O)n1cnc(C2(CC)Cc3ccccc3C2)c1 [Compound 8, N,N-Diethyl-4-(2-ethylindan-2-yl)-1H-imidazole-1-carboxamide]
- IC50 (hBChE; after 5 min preincubation, read-out: hBChE IC50±SD): 1520 ± 90 nM
- hBChE time-dependency observed: Yes/No (hBChE; pre-incubation time varied): Yes
- serum AChE activities at the end of treatment (AChE; 1 or 5 mg/kg p.o. once a day for 4 weeks): unchanged
- remaining activity at 1 mg/kg (AChE; mouse, po, serum, 1 mg/kg p.o. once a day, individual animals, after vs before treatment, read-out: AChE residual activity): 91.2%
- remaining activity at 1 mg/kg (AChE; mouse, po, serum, 1 mg/kg p.o. once a day, read-out: AChE residual activity, AVERAGE): 101%
- remaining activity at 5 mg/kg (AChE; mouse, po, serum, 5 mg/kg p.o. once a day, read-out: AChE residual activity, AVERAGE): 91.2%
- AChE residual activity (AChE; serum, 1 mg/kg p.o. once a day, individual animals, after vs before treatment, 1 mg/kg): 104.0%±9.7% and 107.1%±22.3%
- AChE activity AFTER treatment (AChE; serum, 1 mg/kg p.o. once a day, individual animals, 1 mg/kg): 0.9541±0.2227 U/mL and 1.0365±0.0653 U/mL and 0.8481±0.0324 U/mL
- AChE residual activity (AChE; serum, 5 mg/kg p.o. once a day, individual animals, after vs before treatment, 5 mg/kg): 89.7%±14.6% and 63.0%±13.9% and 121.0%±17.4%
- AChE activity AFTER treatment (AChE; serum, 5 mg/kg p.o. once a day, individual animals, 5 mg/kg): 0.9258±0.0430 U/mL and 0.7420±0.1450 U/mL and 0.9517±0.0657 U/mL
